Test results published in patent US20090143423A1, “SOLID DISPERSION PRODUCT CONTAINING N-ARYL UREA-BASED COMPOUND” (ABBOTT GMBH & CO. KG, priority 2007, published 2009).

What was measured:
[1] = Plasma concentration following multiple oral dosing in rat; type: in vivo, Sprague-Dawley rats; conditions: for AUC / Cmax / Tmax: mean; for half-life: harmonic mean
Procedure: A study was conducted to explore the ABT-102 plasma concentrations following multiple oral dosing in rat. In this study, a 10, 30 or 100 mg/kg/day oral dose was administered once daily for eight consecutive days. The compound was prepared as a suspension of the spray dried material in water at concentrations appropriate for a 20 ml/kg/day dose volume in each treatment group. The study was conducted in Sprague-Dawley rats (3 male, 3 female per dose group). Animals were permitted free access to food and water throughout the study. Plasma concentrations of parent drug were determined on the first (Day 1) and last (Day 8) of dosing.

[2] = Previously conducted human pharmacokinetics of ABT-102; type: in vivo; conditions: lipid-liquid formulation
Description: However, it is anticipated that the current spray dried formulation of the invention also achieves similar pharmacokinetic profile in humans.

[3] = in vivo; conditions: rat, po, 100 mg/kg
Procedure: A study was conducted to evaluate effect of aging on the ABT-102 bioavailability obtained from suspensions of the spray dried material. Suspensions were prepared by stirring in water for 15 minutes at room temperature (5 mg/ml concentration). The suspensions were then stored refrigerated until dosing. Suspensions aged for 1, 4 and 7 days were compared to a suspension freshly prepared on the morning of dosing. Each of the aged suspension was evaluated in a group of three rats at a dose of 100 mg/kg (20 ml/kg). All four test formulations were evaluated in the same study. Plasma concentrations of parent drug were determined by HPLC-MS/MS.

[4] = 10 mg/kg/day oral, Day 1, aqueous suspension of spray-dried dispersion of Example 4 (part B)
[5] = 10 mg/kg/day oral, Day 8, aqueous suspension of spray-dried dispersion of Example 4 (part B)
[6] = 30 mg/kg/day oral, Day 1, aqueous suspension of spray-dried dispersion of Example 4 (part B)
[7] = 30 mg/kg/day oral, Day 8, aqueous suspension of spray-dried dispersion of Example 4 (part B)
[8] = 100 mg/kg/day oral, Day 1, aqueous suspension of spray-dried dispersion of Example 4 (part B)
[9] = 100 mg/kg/day oral, Day 8, aqueous suspension of spray-dried dispersion of Example 4 (part B)
[10] = both sexes, Sprague-Dawley, plasma, po, 10 mg/kg/day, 10 mg/kg/day oral, Day 1, aqueous suspension of spray-dried dispersion of Example 4 (part B)
[11] = both sexes, Sprague-Dawley, plasma, po, 10 mg/kg/day, 10 mg/kg/day oral, Day 8, aqueous suspension of spray-dried dispersion of Example 4 (part B)
[12] = both sexes, Sprague-Dawley, plasma, po, 30 mg/kg/day, 30 mg/kg/day oral, Day 1, aqueous suspension of spray-dried dispersion of Example 4 (part B)
[13] = both sexes, Sprague-Dawley, plasma, po, 30 mg/kg/day, 30 mg/kg/day oral, Day 8, aqueous suspension of spray-dried dispersion of Example 4 (part B)
[14] = both sexes, Sprague-Dawley, plasma, po, 100 mg/kg/day, 100 mg/kg/day oral, Day 1, aqueous suspension of spray-dried dispersion of Example 4 (part B)
[15] = both sexes, Sprague-Dawley, plasma, po, 100 mg/kg/day, 100 mg/kg/day oral, Day 8, aqueous suspension of spray-dried dispersion of Example 4 (part B)

- AUC/D [1, 4]: 0.918 μg · hr/mL per mg/kg
- Cmax/D [1, 4]: 0.073 μg/mL per mg/kg
- AUC ([1]; 10 mg/kg/day oral, Day 1, aqueous suspension of spray-dried dispersion of Example 4 (part B), 10 mg/kg/day): 9180 ng·h/mL
- AUC/D [1, 5]: 0.725 μg · hr/mL per mg/kg
- Cmax/D [1, 5]: 0.060 μg/mL per mg/kg
- AUC ([1]; 10 mg/kg/day oral, Day 8, aqueous suspension of spray-dried dispersion of Example 4 (part B), 10 mg/kg/day): 7250 ng·h/mL
- AUC/D [1, 6]: 0.741 μg · hr/mL per mg/kg
- Cmax/D [1, 6]: 0.046 μg/mL per mg/kg
- AUC ([1]; 30 mg/kg/day oral, Day 1, aqueous suspension of spray-dried dispersion of Example 4 (part B), 30 mg/kg/day): 22220 ng·h/mL
- AUC/D [1, 7]: 0.498 μg · hr/mL per mg/kg
- Cmax/D [1, 7]: 0.044 μg/mL per mg/kg
- AUC ([1]; 30 mg/kg/day oral, Day 8, aqueous suspension of spray-dried dispersion of Example 4 (part B), 30 mg/kg/day): 14950 ng·h/mL
- AUC/D [1, 8]: 0.326 μg · hr/mL per mg/kg
- Cmax/D [1, 8]: 0.021 μg/mL per mg/kg
- AUC ([1]; 100 mg/kg/day oral, Day 1, aqueous suspension of spray-dried dispersion of Example 4 (part B), 100 mg/kg/day): 32610 ng·h/mL
- AUC/D [1, 9]: 0.362 μg · hr/mL per mg/kg
- Cmax/D [1, 9]: 0.026 μg/mL per mg/kg
- AUC ([1]; 100 mg/kg/day oral, Day 8, aqueous suspension of spray-dried dispersion of Example 4 (part B), 100 mg/kg/day): 36180 ng·h/mL
- half-life [1, 10]: 5.9 h
- Cmax [1, 10]: 730 ng/mL
- Tmax [1, 10]: 2.3 h
- AUC ([1]; both sexes, Sprague-Dawley, plasma, po, 10 mg/kg/day, 10 mg/kg/day oral, Day 1, aqueous suspension of spray-dried dispersion of Example 4 (part B), read-out: AUC): 9200 ng·h/mL
- half-life [1, 11]: 5.4 h
- Cmax [1, 11]: 600 ng/mL
- Tmax [1, 11]: 3.3 h
- AUC ([1]; both sexes, Sprague-Dawley, plasma, po, 10 mg/kg/day, 10 mg/kg/day oral, Day 8, aqueous suspension of spray-dried dispersion of Example 4 (part B), read-out: AUC): 7300 ng·h/mL
- half-life [1, 12]: 7.8 h
- Cmax [1, 12]: 1390 ng/mL
- Tmax [1, 12]: 3 h
- AUC ([1]; both sexes, Sprague-Dawley, plasma, po, 30 mg/kg/day, 30 mg/kg/day oral, Day 1, aqueous suspension of spray-dried dispersion of Example 4 (part B), read-out: AUC): 22200 ng·h/mL
- half-life [1, 13]: 5.3 h
- Cmax [1, 13]: 1320 ng/mL
- Tmax [1, 13]: 3.3 h
- AUC ([1]; both sexes, Sprague-Dawley, plasma, po, 30 mg/kg/day, 30 mg/kg/day oral, Day 8, aqueous suspension of spray-dried dispersion of Example 4 (part B), read-out: AUC): 15000 ng·h/mL
- half-life [1, 14]: 6.3 h
- Cmax [1, 14]: 2130 ng/mL
- Tmax [1, 14]: 5 h
- AUC ([1]; both sexes, Sprague-Dawley, plasma, po, 100 mg/kg/day, 100 mg/kg/day oral, Day 1, aqueous suspension of spray-dried dispersion of Example 4 (part B), read-out: AUC): 32600 ng·h/mL
- half-life [1, 15]: 5.6 h
- Cmax [1, 15]: 2610 ng/mL
- Tmax [1, 15]: 4.5 h
- AUC ([1]; both sexes, Sprague-Dawley, plasma, po, 100 mg/kg/day, 100 mg/kg/day oral, Day 8, aqueous suspension of spray-dried dispersion of Example 4 (part B), read-out: AUC): 36200 ng·h/mL
- pharmacokinetics (Cmax and AUC) versus dose [2]: dose proportional exposures
- AUC ([3]; AUC): 12400 ng·h/mL
- Cmax ([3]; Cmax): 1160 ng/mL
- Tmax ([3]; Tmax): 4.3 h
- half-life ([3]; t1/2): 4.4 h
Structure (SMILES): CC(C)(C)c1ccc2c(c1)CCC2NC(=O)Nc1cccc2[nH]ncc12 (stereo in doubt) [ABT-102, 1-((R)-5-tert-butyl-indan-1-yl)-3-(1H-indazol-4-yl)-urea]
